Laboratory results as given in patent publication US10968248B2, “Trinucleotide mRNA cap analogs” (c/o Arcturus Therapeutics, Inc., priority 2016, dated 2021).

Experiments:
[1] = Protein expression in plasma (ELISA) after i.v. delivery of m^7G(5′)p3-RNA to mice; format: in vivo
T7 RNA polymerase = T7 RNA polymerase (Escherichia phage T7, UniProt P00573); details: 2 hrs at 37 C, concluded from protein expression in mice
Protocol: For ARCA and ARC CAP1 mRNAs, in vitro transcription was performed using the standard protocol (see Table, below). All of components were mixed, and T7 RNA polymerase (E2040 from NEB) was added in the reaction mixture. The transcription reaction was incubated for 2 hrs at 37 C. After 2 hrs of reaction time, DNASEI (NEB) and buffer were added to the transcription reaction and incubated for 15 mins at 37 C. The crude of reaction mix was purified using RNA purification kit (Macherey-Nagel).

[2] = system: rabbit reticulocyte lysate system; details: mRNA transcribed with the cap analog; cited from earlier work
[3] = in vitro transcription initiated with the cap analog; cited from earlier work

T7 RNA polymerase, sequence (P00573 whole entry): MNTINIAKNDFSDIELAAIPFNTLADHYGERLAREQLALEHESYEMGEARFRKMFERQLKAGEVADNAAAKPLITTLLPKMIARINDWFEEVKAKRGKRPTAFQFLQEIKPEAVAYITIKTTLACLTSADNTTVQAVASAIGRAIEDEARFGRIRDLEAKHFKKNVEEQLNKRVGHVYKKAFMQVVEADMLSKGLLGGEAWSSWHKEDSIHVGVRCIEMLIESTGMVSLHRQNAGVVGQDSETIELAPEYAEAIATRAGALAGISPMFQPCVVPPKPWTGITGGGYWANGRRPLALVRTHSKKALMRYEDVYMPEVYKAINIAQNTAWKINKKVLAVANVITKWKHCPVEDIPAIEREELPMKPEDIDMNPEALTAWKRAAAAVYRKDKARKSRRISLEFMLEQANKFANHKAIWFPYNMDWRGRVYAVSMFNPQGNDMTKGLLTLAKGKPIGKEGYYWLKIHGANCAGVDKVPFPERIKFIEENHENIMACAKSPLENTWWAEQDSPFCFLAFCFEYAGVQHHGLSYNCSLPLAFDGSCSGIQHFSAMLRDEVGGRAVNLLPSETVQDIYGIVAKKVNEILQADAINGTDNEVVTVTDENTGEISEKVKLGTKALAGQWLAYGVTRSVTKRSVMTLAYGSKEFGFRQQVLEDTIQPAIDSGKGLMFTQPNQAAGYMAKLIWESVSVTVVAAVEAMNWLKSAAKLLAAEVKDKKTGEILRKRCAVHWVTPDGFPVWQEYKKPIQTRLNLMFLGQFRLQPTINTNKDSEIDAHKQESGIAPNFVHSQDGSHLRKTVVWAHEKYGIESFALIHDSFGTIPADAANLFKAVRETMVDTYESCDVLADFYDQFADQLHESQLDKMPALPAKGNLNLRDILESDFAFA

SMILES	efficiency of translation of capped RNA ([1]; compared with enzymatically (vaccinia) capped RNA)	amount of protein expression ([1]; m^7G(5′)p3-RNA 0.3 mg/kg i.v., male mice, plasma 6 hours post dose, ELISA, FIG. 16)	efficiency of transcription (T7 RNA polymerase)	translational efficiency (rank order of cap structures) [2]	caps oriented in the reverse direction / reverse-orientation transcript [3]
CO[C@@H]1[C@H](OP(=O)(O)OC[C@H]2O[C@@H](n3cnc4c(=O)[nH]c(N)nc43)[C@H](O)[C@@H]2O)[C@@H](COP(=O)(O)OP(=O)(O)OP(=O)([O-])OC[C@H]2O[C@@H]([n+]3cn(C)c4c(=O)[nH]c(N)nc43)[C@H](O)[C@@H]2O)O[C@H]1n1cnc2c(N)ncnc21 [ARC CAP1, m^7G(5′)p3AmpG]	just as efficient translated as enzymatically capped RNA	greater than ARCA	substantially improved compared to dinucleotide ARCA	greatest	–
CO[C@H]1[C@@H](O)[C@H](n2c[n+](C)c3c(=O)[nH]c(N)nc32)O[C@@H]1COP(=O)(O)OP(=O)(O)OP(=O)(O)OC[C@H]1O[C@@H](n2cnc3c(=O)[nH]c(N)nc32)[C@H](O)[C@@H]1O [ARCA, 3′-OMe-m^7G(5′)p3G]	–	–	–	–	without reversal
Cn1c[n+]([C@@H]2O[C@H](COP(=O)(O)OP(=O)([O-])OP(=O)(O)OC[C@H]3O[C@@H](n4cnc5c(=O)[nH]c(N)nc54)[C@H](O)[C@@H]3O)[C@@H](O)[C@H]2O)c2nc(N)[nH]c(=O)c21 [m^7G(5′)p3(5′)G]	–	–	–	–	one third to one half of the caps oriented in the reverse direction
